Key:
IRAK4 = target: T1, IRAK4 (Homo sapiens, UniProt Q9NWZ3); test: IRAK4 enzymatic assay (ADP-Glo luminescence); format: biochemical; details: purified human recombinant His-TEV-IRAK4 (1-460), ATP 2 μM
T1 construct: His-TEV-IRAK4 (1-460); His (N); TEV cleavage site (N)
T1 sequence (Q9NWZ3 1-460): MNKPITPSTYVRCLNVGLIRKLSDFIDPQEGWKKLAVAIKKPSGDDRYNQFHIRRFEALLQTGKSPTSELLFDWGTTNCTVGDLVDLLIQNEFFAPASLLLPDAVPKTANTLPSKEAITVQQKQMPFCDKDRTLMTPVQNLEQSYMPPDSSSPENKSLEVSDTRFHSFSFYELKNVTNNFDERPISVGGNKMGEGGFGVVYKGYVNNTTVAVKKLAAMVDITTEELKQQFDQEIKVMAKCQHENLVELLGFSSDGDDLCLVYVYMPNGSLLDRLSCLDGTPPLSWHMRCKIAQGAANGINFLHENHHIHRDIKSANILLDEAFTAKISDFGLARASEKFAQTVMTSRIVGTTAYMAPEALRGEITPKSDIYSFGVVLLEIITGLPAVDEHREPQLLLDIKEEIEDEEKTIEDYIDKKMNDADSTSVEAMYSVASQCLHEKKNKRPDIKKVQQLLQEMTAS
Outline: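 Recombinant His-TEV-IRAK4 (1-460) at 0.3 μg/ml preincubated 15 min at RT with compounds (10 μM to 0.5 nM) in Hepes pH 7.0 buffer with MgCl2/MnCl2. Reaction started with 2 μM ATP and 300 nM STK1-biotin peptide, run 2 h at RT. ADP formed read by ADP-Glo luminescence.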

IRAK1 = target: T2, IRAK1 (Homo sapiens, UniProt P51617); test: IRAK1 enzymatic assay (ADP-Glo luminescence); format: biochemical; details: purified human recombinant His-TEV-IRAK1 (194-712)
T2 construct: His-TEV-IRAK1 (194-712); His (N); TEV cleavage site (N)
Outline: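 Recombinant human His-TEV-IRAK1 (194-712), 0.3 μg/ml, preincubated 15 min at RT with compounds (10 μM to 0.5 nM) in 50 mM Hepes pH 7.0, 10 mM MgCl2, 2 mM DTT, 0.1% BSA. ATP-started reaction run 2 hours at RT; ADP formed from ATP hydrolysis/autophosphorylation read by ADP-Glo luminescence.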

T2 sequence (P51617 194-712): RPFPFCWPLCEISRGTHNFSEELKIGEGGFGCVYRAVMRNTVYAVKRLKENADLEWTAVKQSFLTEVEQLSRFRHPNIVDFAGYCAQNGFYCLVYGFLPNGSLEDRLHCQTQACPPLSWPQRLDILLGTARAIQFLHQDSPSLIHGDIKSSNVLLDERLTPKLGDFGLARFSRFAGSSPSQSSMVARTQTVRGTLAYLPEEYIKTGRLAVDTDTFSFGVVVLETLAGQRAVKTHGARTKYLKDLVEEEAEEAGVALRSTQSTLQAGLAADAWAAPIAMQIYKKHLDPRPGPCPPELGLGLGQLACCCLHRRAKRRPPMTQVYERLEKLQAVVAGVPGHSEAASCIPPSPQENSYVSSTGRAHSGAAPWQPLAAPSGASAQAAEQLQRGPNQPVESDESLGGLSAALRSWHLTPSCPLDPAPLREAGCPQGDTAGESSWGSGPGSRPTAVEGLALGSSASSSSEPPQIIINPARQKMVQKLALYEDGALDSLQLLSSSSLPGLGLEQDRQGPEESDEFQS

Structure (SMILES) | IC50 (IRAK4) | IC50 (IRAK1)
O=C(/N=c1\[nH]c2cc(N3CCOCC3=O)c(OC(F)F)cc2n1CCCO)c1cccc(C(F)(F)F)c1 [Example 211, (E)-N-(6-(difluoromethoxy)-1-(3-hydroxypropyl)-5-(3-oxomorpholino)-1H-benzo[d]imidazol-2(3H)-ylidene)-3-(trifluoromethyl)benzamide] | ≤ 0.1 µM | ≤ 0.1 µM
O=C(/N=c1\[nH]c2cc(N3C(=O)CN4CCC3CC4)ccc2n1CCCO)c1cccc(C(F)F)c1 [Example 212, (E)-3-(difluoromethyl)-N-(1-(3-hydroxypropyl)-5-(3-oxo-1,4-diazabicyclo[3.2.2]nonan-4-yl)-1H-benzo[d]imidazol-2(3H)-ylidene)benzamide] | ≤ 0.1 µM | 0.1 to 1 µM
O=C(/N=c1\[nH]c2cc(N3CC4CC(N4)C3=O)ccc2n1CCCO)c1cccc(C(F)F)c1 (centres unmarked) [Example 213, (E)-3-(difluoromethyl)-N-(1-(3-hydroxypropyl)-5-(2-oxo-3,6-diazabicyclo[3.1.1]heptan-3-yl)-1H-benzo[d]imidazol-2(3H)-ylidene)benzamide] | ≤ 0.1 µM | 0.1 to 1 µM
O=C(/N=c1\[nH]c2cc(N3CC4CCC(C3=O)N4C3CC3)ccc2n1CCCO)c1cccc(C(F)F)c1 (centres unmarked) [Example 214, (E)-N-(5-(8-cyclopropyl-2-oxo-3,8-diazabicyclo[3.2.1]octan-3-yl)-1-(3-hydroxypropyl)-1H-benzo[d]imidazol-2(3H)-ylidene)-3-(difluoromethyl)benzamide] | ≤ 0.1 µM | 0.1 to 1 µM
O=C(/N=c1\[nH]c2cc(N3CC4CCC(C3=O)N4C3CC3)ccc2n1CCCO)c1cccc(C(F)(F)F)c1 (centres unmarked) [Example 215, (E)-N-(5-(8-cyclopropyl-2-oxo-3,8-diazabicyclo[3.2.1]octan-3-yl)-1-(3-hydroxypropyl)-1H-benzo[d]imidazol-2(3H)-ylidene)-3-(trifluoromethyl)benzamide] | ≤ 0.1 µM | > 1 µM
O=C(/N=c1\[nH]c2cc(N3CC4CC(N4)C3=O)ccc2n1CCCO)c1cccc(C(F)(F)F)c1 (centres unmarked) [Example 216, (E)-N-(1-(3-hydroxypropyl)-5-(2-oxo-3,6-diazabicyclo[3.1.1]heptan-3-yl)-1H-benzo[d]imidazol-2(3H)-ylidene)-3-(trifluoromethyl)benzamide] | ≤ 0.1 µM | 0.1 to 1 µM
O=C(/N=c1\[nH]c2cc(N3CC4CCC(O4)C3=O)ccc2n1CCCO)c1cccc(C(F)(F)F)c1 (centres unmarked) [Example 217, (E)-N-(1-(3-hydroxypropyl)-5-(2-oxo-8-oxa-3-azabicyclo[3.2.1]octan-3-yl)-1H-benzo[d]imidazol-2(3H)-ylidene)-3-(trifluoromethyl)benzamide] | ≤ 0.1 µM | 0.1 to 1 µM
CC1(C)CCOC(=O)N1c1ccc2c(c1)[nH]/c(=N\C(=O)c1cccc(C(F)F)c1)n2CCCO [Example 218, (E)-3-(difluoromethyl)-N-(5-(4,4-dimethyl-2-oxo-1,3-oxazinan-3-yl)-1-(3-hydroxypropyl)-1H-benzo[d]imidazol-2(3H)-ylidene)benzamide] | ≤ 0.1 µM | ≤ 0.1 µM
CC1(C)CCOC(=O)N1c1ccc2[nH]c(=NC(=O)c3cccc(C(F)F)c3)n(CCCO)c2c1 [Example 219] | ≤ 0.1 µM | 0.1 to 1 µM
CC1(C)CCOC(=O)N1c1ccc2c(c1)[nH]/c(=N\C(=O)c1cccc(C(F)(F)F)c1)n2CCCO [Example 220, (E)-3-(trifluoromethyl)-N-(5-(4,4-dimethyl-2-oxo-1,3-oxazinan-3-yl)-1-(3-hydroxypropyl)-1H-benzo[d]imidazol-2(3H)-ylidene)benzamide] | ≤ 0.1 µM | ≤ 0.1 µM
CC1(C)CCOC(=O)N1c1ccc2[nH]c(=NC(=O)c3cccc(C(F)(F)F)c3)n(CCCO)c2c1 [Example 221] | ≤ 0.1 µM | 0.1 to 1 µM
CC1(C)OCCN(c2ccc3c(c2)[nH]/c(=N\C(=O)c2cccc(C(F)F)c2)n3CCCO)C1=O [Example 222, (E)-3-(difluoromethyl)-N-(5-(2,2-dimethyl-3-oxomorpholino)-1-(3-hydroxypropyl)-1H-benzo[d]imidazol-2(3H)-ylidene)benzamide] | ≤ 0.1 µM | 0.1 to 1 µM
CC1(C)OCCN(c2ccc3c(c2)[nH]/c(=N\C(=O)c2cccc(C(F)(F)F)c2)n3CCCO)C1=O [Example 223, (E)-3-(trifluoromethyl)-N-(5-(2,2-dimethyl-3-oxomorpholino)-1-(3-hydroxypropyl)-1H-benzo[d]imidazol-2(3H)-ylidene)benzamide] | ≤ 0.1 µM | ≤ 0.1 µM
CN1CCCN(c2ccc3c(c2)[nH]/c(=N\C(=O)c2cccc(C(F)(F)F)c2)n3CCCO)C1=O [Example 224, (E)-N-(1-(3-hydroxypropyl)-5-(3-methyl-2-oxotetrahydropyrimidin-1(2H)-yl)-1H-benzo[d]imidazol-2(3H)-ylidene)-3-(trifluoromethyl)benzamide] | ≤ 0.1 µM | 0.1 to 1 µM
CN1CCCN(c2ccc3c(c2)[nH]/c(=N\C(=O)c2cccc(C(F)F)c2)n3CCCO)C1=O [Example 225, (E)-N-(1-(3-hydroxypropyl)-5-(3-methyl-2-oxotetrahydropyrimidin-1(2H)-yl)-1H-benzo[d]imidazol-2(3H)-ylidene)-3-(difluoromethyl)benzamide] | ≤ 0.1 µM | 0.1 to 1 µM
CC(F)(CO)Cn1/c(=N/C(=O)c2cccc(C(F)(F)F)c2)[nH]c2cc(N3CCCOC3=O)ccc21 (centres unmarked) [Example 226, (E)-N-(1-(2-fluoro-3-hydroxy-2-methylpropyl)-5-(2-oxo-1,3-oxazinan-3-yl)-1H-benzo[d]imidazol-2(3H)-ylidene)-3-(trifluoromethyl)benzamide] | ≤ 0.1 µM | ≤ 0.1 µM
O=C(/N=c1\[nH]c2cc(N3CCCOC3=O)ccc2n1CC1(F)COC1)c1cccc(C(F)F)c1 [Example 227, (E)-3-(difluoromethyl)-N-(1-((3-fluorooxetan-3-yl)methyl)-5-(2-oxo-1,3-oxazinan-3-yl)-1H-benzo[d]imidazol-2(3H)-ylidene)benzamide] | ≤ 0.1 µM | 0.1 to 1 µM
O=C(/N=c1\[nH]c2cc(N3CCCOC3=O)ccc2n1CC1(F)CCOCC1)c1cccc(C(F)F)c1 [Example 228, (E)-3-(difluoromethyl)-N-(1-((4-fluorotetrahydro-2H-pyran-4-yl)methyl)-5-(2-oxo-1,3-oxazinan-3-yl)-1H-benzo[d]imidazol-2(3H)-ylidene)benzamide] | ≤ 0.1 µM | 0.1 to 1 µM
O=C(/N=c1\[nH]c2cc(N3CCCOC3=O)ccc2n1CC1(F)CCOCC1)c1cccc(C(F)(F)F)c1 [Example 229, (E)-N-(1-((4-fluorotetrahydro-2H-pyran-4-yl)methyl)-5-(2-oxo-1,3-oxazinan-3-yl)-1H-benzo[d]imidazol-2(3H)-ylidene)-3-(trifluoromethyl)benzamide] | ≤ 0.1 µM | 0.1 to 1 µM
N#Cc1cccc(C(=O)/N=c2\[nH]c3cc(N4CCCOC4=O)ccc3n2CC2(F)CCOCC2)c1 [Example 230, (E)-3-cyano-N-(1-((4-fluorotetrahydro-2H-pyran-4-yl)methyl)-5-(2-oxo-1,3-oxazinan-3-yl)-1H-benzo[d]imidazol-2(3H)-ylidene)benzamide] | ≤ 0.1 µM | 0.1 to 1 µM
CC(=O)c1cccc(C(=O)/N=c2\[nH]c3cc(N4CCOCC4=O)ccc3n2CCCO)c1 [Example 231, (E)-3-acetyl-N-(1-(3-hydroxypropyl)-5-(3-oxomorpholino)-1H-benzo[d]imidazol-2(3H)-ylidene)benzamide] | ≤ 0.1 µM | 0.1 to 1 µM
O=C(/N=c1\[nH]c2cc(N3CCOCC3=O)ccc2n1CCCO)c1ccc2scnc2c1 [Example 232, (E)-N-(1-(3-hydroxypropyl)-5-(3-oxomorpholino)-1H-benzo[d]imidazol-2(3H)-ylidene)benzo[d]thiazole-5-carboxamide] | ≤ 0.1 µM | > 1 µM

— patent publication US10059701B2 (Merck Patent GmbH, priority 2015, dated 2018)
